Series [1] in a line: Quantification of lentinan in serum after oral administration (Fungitec G test). The series is classed as in vivo. The conditions noted are these: mice fed orally four times with 100 μg (total 400 μg) during 4 hr, serum 2 hr after last administration, mean ± SD. As for the experimental part:
Formulations of 400 μg of lentinan dissolved in PBS or associated with liposomes were delivered orally in four doses to fasted mice over a period of 4 hrs. The level of lentinan in blood serum was measured 2 hr after the delivery using the Fungitec G test (Seikagaku Co., Inc.), according to the manufacturer's protocol. Background activity was determined by analyzing lentinan levels in sera of control mice.
We first investigated whether lentinan dissolved in PBS or associated with liposomes would penetrate through the epithelial barrier of the gut. Mice were fed with four doses of liposome-associated or unencapsulated lentinan (total concentration of 400 μg) over a 4-hr period. The level of lentinan in blood serum was analyzed 2 hr after lentinan administration.

For series [2], the system named is splenocytes stimulated with rgp160.

Turning to Lentinan, the “Serum concentration of lentinan” value is recorded as 1,325 ± 1,241 pg/ml in series [1] (listed as Unencapsulated lentinan) and 1,325±1,241 pg/ml in series [1] (listed as unencapsulated lentinan). Also, the “Toxic effect to the cells” value in series [2] was “without any detectable toxic effect”. The “Env-specific IFN-γ level relative to stimulation with rgp160 in the absence of lentinan” value in series [2] (lentinan 3 μg/ml to 100 μg/ml, 3 days, FIG. 3) is given as approximately 2 fold. Besides, the “Effect on env-specific IFN-γ production” value in series [2] (lentinan higher than 100 μg/ml or lower than 3 μg/ml) is “smaller effect”.

The values above are taken from patent US7011845B2, “β-glucans encapsulated in liposomes” (MCP Hahnemann University, priority 2000, dated 2006).
